Reference: ChEMBL document CHEMBL1201862, “PubChem BioAssay data set” (2004)
“And” between values parts separate entries of the source, which are not always exact repeats. Identical values can stand only once. The source made the active and inactive calls. Rule as the data show it, for most assays here: actives have a measured EC50 and inactives only a lower limit.

Columns and labels:
[1] = Luminescence Cell-Based Dose Retest to Confirm Inhibitors of Cancer Stem Cells. [Related pubchem assays (depositor defined):AID2717, AID2721]; assay type: functional; conditions: Homo sapiens
[2] = target: Paired box protein Pax-8 (Homo sapiens, UniProt Q06710); assay: inhibitors of PAX8-driven TPO luciferase reporter, dose response, RMG-I cells, cherry-pick (AID 687027); assay type: functional, cell-based;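 also: luciferase reporter driven by Pax8 target thyroperoxidase promoter measured by SteadyGlo luminescence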
[3] = tested on: Streptococcus; assay: Group A Streptococcus viability loss, dose response, counter-screen for streptokinase expression inhibitor project, luminescence, BacTiterGlo (AID 1915); assay type: functional, organism-based;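 also: potency for reduction of bacterial viability or growth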
[4] = target: T1, Streptokinase A (Streptococcus pyogenes serotype M1, UniProt P10520); assay: S. pyogenes streptokinase expression inhibitors, potency, dose response, plasminogen activation absorbance, OD405 (AID 1914); assay type: functional, Streptococcus pyogenes M1 GAS;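 also: secreted streptokinase activity via plasminogen activation per viability signal from cell pellet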
T1 sequence (P10520 whole entry): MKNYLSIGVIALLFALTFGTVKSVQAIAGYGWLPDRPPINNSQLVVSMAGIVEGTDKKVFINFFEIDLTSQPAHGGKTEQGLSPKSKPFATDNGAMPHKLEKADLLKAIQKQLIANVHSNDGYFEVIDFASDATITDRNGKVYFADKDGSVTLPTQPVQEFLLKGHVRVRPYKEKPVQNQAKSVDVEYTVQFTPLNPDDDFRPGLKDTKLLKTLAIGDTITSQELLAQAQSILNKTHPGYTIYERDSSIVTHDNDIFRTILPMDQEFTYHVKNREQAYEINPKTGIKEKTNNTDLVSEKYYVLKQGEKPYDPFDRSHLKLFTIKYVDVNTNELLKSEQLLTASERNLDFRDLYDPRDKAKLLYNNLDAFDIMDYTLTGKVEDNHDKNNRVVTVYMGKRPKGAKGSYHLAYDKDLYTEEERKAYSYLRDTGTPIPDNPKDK

[5] = tested on: Streptococcus sp. 'group A'; assay: growth inhibition of control SK(-) GAS strain, dose response, counter-screen for streptokinase expression inhibitor project, luminescence, kanamycin, BacTiterGlo, confirmation (AID 1900); assay type: functional, organism-based
[6] = target: Cytochrome P450 3A4 (Homo sapiens, UniProt P08684);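 also: CYP3A4 tested as one member of a cytochrome P450 panel screen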
[7] = cytotoxicity toward NIH3T3 fibroblasts, dose response, counter-screen, cell-based, ATP luminescence, mouse fibroblasts (AID 2010); assay type: functional;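 also: cells exposed to compound for about 90 hours before reading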
[8] = inhibitors of intracellular T. cruzi replication, confirmation, NIH3T3 host cells, beta-gal luminescence (AID 2044); assay type: functional, cell-based;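 also: intracellular parasites grown in NIH/3T3 mouse fibroblasts as host cells; luminescent beta-galactosidase reporter signal from transgenic T. cruzi replicating inside host cells; inhibitors lower the luminescence signal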
[9] = HEp-2 cell cytotoxicity, dose response, cytotoxicity control for RSV inhibitor project, HTS (AID 2410); assay type: functional; conditions: human respiratory syncytial virus

Sequence of Cytochrome P450 3A4 (P08684 whole entry): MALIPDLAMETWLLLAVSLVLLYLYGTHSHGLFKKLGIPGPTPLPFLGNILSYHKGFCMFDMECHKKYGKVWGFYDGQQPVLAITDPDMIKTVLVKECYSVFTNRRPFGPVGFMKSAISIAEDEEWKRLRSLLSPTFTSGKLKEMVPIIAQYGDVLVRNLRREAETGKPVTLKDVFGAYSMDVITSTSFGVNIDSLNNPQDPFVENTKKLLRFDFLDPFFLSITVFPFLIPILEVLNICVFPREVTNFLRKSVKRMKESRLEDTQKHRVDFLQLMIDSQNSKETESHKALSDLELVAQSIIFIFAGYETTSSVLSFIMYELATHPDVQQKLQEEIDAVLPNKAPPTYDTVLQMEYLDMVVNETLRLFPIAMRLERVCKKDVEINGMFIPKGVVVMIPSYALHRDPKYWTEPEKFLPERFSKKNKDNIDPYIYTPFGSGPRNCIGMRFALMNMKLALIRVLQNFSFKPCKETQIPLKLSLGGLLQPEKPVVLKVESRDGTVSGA
Sequence of Paired box protein Pax-8 (Q06710 whole entry): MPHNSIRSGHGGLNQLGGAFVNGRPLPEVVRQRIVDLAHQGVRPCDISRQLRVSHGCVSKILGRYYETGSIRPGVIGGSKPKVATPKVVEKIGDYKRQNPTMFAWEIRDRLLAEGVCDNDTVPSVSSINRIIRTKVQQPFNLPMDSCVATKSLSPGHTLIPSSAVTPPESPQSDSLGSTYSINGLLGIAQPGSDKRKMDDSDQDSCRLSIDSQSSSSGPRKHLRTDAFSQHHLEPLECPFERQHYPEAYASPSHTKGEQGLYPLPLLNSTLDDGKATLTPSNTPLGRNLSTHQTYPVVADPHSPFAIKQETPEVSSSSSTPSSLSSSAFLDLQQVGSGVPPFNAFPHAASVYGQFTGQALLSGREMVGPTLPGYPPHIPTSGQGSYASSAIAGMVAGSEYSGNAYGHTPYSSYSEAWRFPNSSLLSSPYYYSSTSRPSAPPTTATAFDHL

Cn1nnnc1Sc1ncnc2scc(-c3cccc4c3sc3ccccc34)c12
AC50 [1]: 1.25 µM (active) | AC50 [2]: 3.89 µM (active)

CCC1(C)Cc2ccccc2-c2nc(-c3ccccc3)oc(=O)c21 (stereo not drawn)
EC50 [3]: > 150 µM (not active) | EC50 [4]: 13.2 µM (active) | EC50 [5]: 14 µM (active)

CC(=O)NNc1cccc(Cl)n1
AC50 [1]: > 195 µM (inactive)

Cc1c(Cl)cnc(NC(=O)COC(=O)CCS(=O)(=O)c2ccccc2)c1Cl
AC50 [6]: 15.8 µM (inconclusive)

CCS(=O)(=O)N1Cc2ccccc2CC1C(=O)Nc1nnc(SCc2c(Cl)cccc2Cl)s1 (stereo not drawn)
AC50 [2]: 34.9 µM (active)

COc1ccc(/C=N/NC(=O)CCn2cnc(-c3ccccc3)c2-c2ccccc2)cc1OC
AC50 [1]: 0.404 µM (active)

Cc1cc(C)c2c(C(C)(C)C)nn(-c3ccccc3)c2n1
EC50 [3]: 15.7 µM (active) | EC50 [4]: 30.2 µM (active) | EC50 [5]: 15.1 µM (active)

Cc1nn(CC(=O)Nc2c(F)c(F)cc(F)c2F)c(=O)c2cccn12
EC50 [3]: > 150 µM (not active) | EC50 [4]: > 150 µM (not active) | EC50 [5]: > 150 µM (not active)

CCN(CC)C(=O)N[C@H]1C[C@H]2c3cccc4[nH]cc(c34)C[C@@H]2N(C)C1
AC50 [6]: 10 µM (inconclusive)

CC1=C(C(N)=O)C(c2cccnc2)n2nc(-c3cccc(C)c3)nc2N1 (stereo not drawn)
EC50 [7]: > 60 µM (not active) | EC50 [8]: > 60 µM (not active)

Cc1nn2c(N3CCN(C)CC3)cc(C(C)(C)C)nc2c1-c1ccccc1
EC50 [7]: 4.77 µM (active) | EC50 [8]: 0.145 µM (active)

C[C@@H]1CN([C@H](C)CO)C(=O)c2cc(NC(=O)Nc3ccc(C(F)(F)F)cc3)ccc2O[C@@H](C)CCCCO[C@H]1CN(C)Cc1ccccc1
AC50 [2]: 12.2 µM (active)

CCC1CCc2sc(C(=O)NC3CCN(Cc4ccccc4)CC3)cc2C1 (stereo not drawn)
EC50 [7]: 5.09 µM (active) | EC50 [8]: 0.48 µM (active)

COc1ccc(C)cc1NC(=O)CNC(c1ccccc1)c1ccccc1
EC50 [3]: 96.1 µM (active) | EC50 [4]: > 150 µM (not active) | EC50 [5]: 28.9 µM (active)

COC(=O)c1ccc(C(=O)OC)c(NC(=O)CN(C)Cc2cccc(Cl)c2Cl)c1
EC50 [3]: > 150 µM (not active) | EC50 [4]: 13.9 µM (active) | EC50 [5]: 11.2 µM (active)

O=C(Nc1ccccc1Cl)c1cccc(COc2cc(Cl)ccc2Cl)c1
CC50 [9]: > 50 µM (active)

Cc1cccc(-n2cc(-c3ccccc3)c3c(N4CCOCC4)ncnc32)c1
AC50 [1]: 5.24 µM (active)

O=C(Nc1cccc([N+](=O)[O-])c1)C12CC3CC(C1)CC(n1cnc([N+](=O)[O-])n1)(C3)C2
EC50 [7]: > 60 µM (not active) | EC50 [8]: 0.102 µM (active)

Cc1cccc(NC(=O)c2[nH]cnc2C(=O)N[C@@H](Cc2ccccc2)C(=O)OC(C)(C)C)c1
EC50 [3]: 3.87 µM (active) | EC50 [5]: 2.46 µM (active)

CC(C)c1ccc(C(=O)NCCCN(C)C)cc1
EC50 [7]: > 60 µM (not active) | EC50 [8]: 1.27 µM (active)

COc1ccc(/N=C2\SC(CC(=O)Nc3ccccc3F)C(=O)N2Cc2ccco2)cc1 (stereo not drawn)
CC50 [9]: 25.1 µM (active)

COCCNC(=O)CCC1CCN(Cc2ccc(-c3ccccc3)cc2)CC1
EC50 [7]: > 60 µM (not active) | EC50 [8]: 1.77 µM (active)

O=C(CN1CCCC1)Nc1ccc(NC(=O)Nc2ccccc2)cc1
EC50 [3]: > 150 µM (not active) | EC50 [4]: > 150 µM (not active) | EC50 [5]: > 150 µM (not active)

Cc1nnc(SCC2=C(C(=O)O)N3C(=O)C(NC(=O)c4cc(F)c(F)cc4Cl)C3SC2)s1 (stereo not drawn)
EC50 [3]: 0.815 µM (active) | EC50 [4]: > 150 µM (not active) | EC50 [5]: 0.515 µM (active)

C=CCn1c2ccccc2c2nnc(SCc3nc(O)[nH]c3C(=O)CCCCC(=O)OCC)nc21
CC50 [9]: > 50 µM (active)

COc1ccccc1CNc1ccnc(-c2ccccc2Cl)n1
AC50 [6]: 2.51 µM (inconclusive)

O=Cc1ccc(Oc2cc(-c3ccccc3)nc(-c3ccccc3)n2)cc1
AC50 [1]: 3.14 µM (active)

CC(C)Oc1ccc(C(=O)Nc2nnc(C3=COCCO3)o2)cc1
EC50 [3]: 14.8 µM (active) | EC50 [4]: > 150 µM (not active) | EC50 [5]: 0.766 µM (active)

COc1ccc(N2CCN(C(S)=Nc3cc(C)ccc3C)CC2)cc1
AC50 [6]: 3.16 µM (inconclusive)

Cc1ccc(Nc2cc(C)nc(-c3ccccc3O)n2)cc1
CC50 [9]: 14.6 µM (active)

CCN(CC(=O)Nc1ccc(S(=O)(=O)N2CCCCC2)cc1)Cc1ccccc1
CC50 [9]: 28 µM (active)

Cc1ccc(CN2CCN(Cc3ccc(-n4cccn4)cc3C)CC2CCO)cc1 (stereo not drawn)
EC50 [7]: > 30 µM (not active) | EC50 [8]: 0.651 µM (active)

S=C(Nc1ccccc1)Nc1nc2ccccc2n1CCOc1ccc(Br)cc1
AC50 [1]: 11.6 µM (active)

O=C(NCC1CCCO1)c1ccc([N+](=O)[O-])s1 (stereo not drawn)
EC50 [7]: > 30 µM (not active) | EC50 [8]: 0.728 µM (active)

COc1ccc(-c2nc3cnc(Nc4cccc(OC)c4)nc3n(Cc3cccs3)c2=O)cc1
AC50 [6]: 6.31 µM (inconclusive)

COc1ccccc1-c1c(C)nn2c(N)c(-c3ccccc3)cnc12
CC50 [9]: 24.2 µM (active)

CCCCCn1c(=O)[nH]c2cc(C(=O)NCCCN(C)Cc3ccccc3)ccc2c1=O
EC50 [7]: > 60 µM (inconclusive) | EC50 [8]: 0.911 µM (active)

CC(=O)OC[C@@H]1O[C@H](CCO/N=C(\C)CCN2CCCc3nc(C)c(C)cc32)C=C[C@@H]1OC(C)=O
AC50 [6]: 3.98 µM (inconclusive)

CON(C)C(=O)c1nnc2c3ccccc3n(S(=O)(=O)c3ccc(C)cc3)c2n1
AC50 [6]: 3.98 µM (inconclusive) and 3.16 µM (inconclusive)

COC(=O)C1=CN(Cc2ccc(OC)c(OC)c2)C=C(C(=O)OC)C1c1cccc(O)c1
EC50 [7]: > 60 µM (not active) | EC50 [8]: 0.311 µM (active)

CCN(CC(=O)Nc1c(C(=O)OC)[nH]c2ccc(C)cc12)c1ccc2c(c1)OCO2
CC50 [9]: > 50 µM (active)

CC[C@H]1CC2CN3CCc4c([nH]c5c([C@H]6C[C@H]7[C@H](CC)CN(C)[C@@H](Cc8c6[nH]c6ccccc86)[C@H]7C(=O)OC)c(OC)ccc45)C(C(=O)OC)(C2)C13
AC50 [1]: 1.99 µM (active)

Nc1ncc2c(n1)-c1cc(Cl)ccc1SC2
EC50 [7]: > 60 µM (not active) | EC50 [8]: 1.55 µM (active)

CCOc1ccc(-c2nnc3ccc(SC(C)C)nn23)cc1
EC50 [3]: 22.9 µM (active) | EC50 [4]: > 150 µM (not active) | EC50 [5]: 2.79 µM (active)

Clc1ccc(-c2csc(N/N=C\c3cccnc3)n2)cc1
EC50 [7]: > 60 µM (not active) | EC50 [8]: 1.84 µM (active)

Cc1cc(=O)oc2c3c(cc(OCC(=O)NC4CC4)c12)OC(C)(C)CC3
EC50 [3]: > 150 µM (not active) | EC50 [4]: > 150 µM (not active) | EC50 [5]: > 150 µM (not active)

COc1ccc(Br)cc1C(=O)Nc1ccccc1N1CCN(C(=O)c2ccccc2)CC1
EC50 [7]: > 60 µM (not active) | CC50 [9]: 29 µM (active) | EC50 [8]: 1.46 µM (active)

CC12CCC3c4ccc(O)cc4CCC3C1CCC2=O (stereo not drawn)
CC50 [9]: 29.6 µM (active)

COc1ccc(CN2CCc3ccc(NC(=O)c4ccncc4)cc3C2)c(F)c1
EC50 [3]: > 150 µM (not active) | EC50 [4]: > 150 µM (not active) | EC50 [5]: > 150 µM (not active)

COC(=O)c1cc(=O)n(Cc2cccs2)/c(=N/c2ccccc2)s1
AC50 [1]: 5.15 µM (active)

COc1cccc2cc(-c3csc(CCn4nc(C)cc4C)n3)c(=O)oc12
CC50 [9]: 41.8 µM (active)

Cc1ccc(CN2CCCC(C(=O)c3sccc3C)C2)o1 (stereo not drawn)
EC50 [7]: > 60 µM (not active) | EC50 [8]: 0.719 µM (active)

COc1ccc(NC(=O)N2CC3(CCN(C(=O)c4ccncc4)CC3)C2)cc1
AC50 [6]: 15.8 µM (inconclusive)

CCCCn1c(=N)n(CC(=O)C(C)(C)C)c2ccccc21
EC50 [7]: > 60 µM (not active) | EC50 [8]: 5.54 µM (active)

O=c1c2ccc([N+](=O)[O-])cc2ncn1CCOc1ccc(Cl)cc1
EC50 [7]: > 30 µM (not active) | EC50 [8]: 0.145 µM (active)

COc1ccc2c(c1)CCC1=C2N=C(S)NC1c1ccc(N(C)C)cc1 (stereo not drawn)
EC50 [7]: > 60 µM (not active) | EC50 [8]: 2.62 µM (active)

O=C(c1cccc(F)c1)N1CCN(c2cc(N3CCCCC3)c(F)cc2[N+](=O)[O-])CC1
CC50 [9]: 22.2 µM (active)

C/C(=N\c1ccc(C)cc1C)c1sc2ccccc2c1O
CC50 [9]: 17.8 µM (active)

O=C(/C=C/c1ccccc1)NCCc1ccccc1
EC50 [3]: > 150 µM (not active) | EC50 [4]: 48.7 µM (active) | EC50 [5]: > 150 µM (not active)

CN(C)Cc1c[nH]c2ccccc12 [GRAMINE]
AC50 [6]: 3.16 µM (inconclusive)

Cc1ccsc1C1C=C(c2cccc(Br)c2)Nc2ncnn21 (stereo not drawn)
EC50 [3]: > 150 µM (not active) | EC50 [4]: > 150 µM (not active) | EC50 [5]: 7.49 µM (active)

C[C@H](CO)N1C[C@H](C)[C@@H](CN(C)S(=O)(=O)c2ccc(F)cc2)Oc2ccc(NC(=O)Nc3ccc(C(F)(F)F)cc3)cc2C1=O
AC50 [1]: 4.25 µM (active)
